The record followed here is BindingDB's records for doi:10.1021/bi00331a002 (University of Minnesota, 1985).

By Ki is commonly meant the dissociation constant of the complex between target and ligand, obtained from inhibition or displacement. A low value points to higher affinity.

The assay concerns the target Glutamate receptor ionotropic, NMDA 1 (Rattus norvegicus, UniProt P35439).
In the case of `CC(C[C@H](N)C(=O)O)P(=O)(O)O` (stereo partly drawn) [gamma-methyl-APB], the inhibition constant Ki worked out at 8.6 µM.

Consider `N[C@H](CC(=O)O)C(=O)O`, for which the inhibitory constant (Ki) was more than 10 µM.

In turn, `N[C@@H](CC(=O)O)C(=O)O` [L-Aspartic acid, 2] showed a Ki of 8 µM.

As to `N[C@H](CCP(=O)(O)O)C(=O)O` [D-AP4], the Ki is more than 10 µM.

Consider `N[C@@H](CCP(=O)(O)O)C(=O)O` [2-Amino-4-phosphono-butyric acid], for which the Ki was 1.5 µM.

On to `N[C@@H](Cn1oc(=O)[nH]c1=O)C(=O)O` [2-amino-3-(3,5-dioxo[1,2,4]oxadiazolidin-2-yl)propionic acid], for which the Ki was 0.26 µM.

In turn, `N[C@H](CCCP(=O)(O)O)C(=O)O` [CB3371309] registered an inhibitory constant (Ki) of more than 10 µM.

As to `CP(=O)(O)CCC(N)C(=O)O` (stereo not drawn) [2-amino-4-(methylphosphino) butanoic acid], the affinity corresponds to a Ki of 3.8 µM.
